Laboratory results taken from patent US11141413B2, “Method of treating renal cell carcinoma using N-(4-(6,7-dimethoxyquinolin-4-yloxy)phenyl)-N′-(4-fluorophenyl)cyclopropane-1,1-dicarboxamide, (2S)-hydroxybutanedioate” (Exelixis, Inc., priority 2016, dated 2021).

Test system: patients with advanced renal cell carcinoma
Test: METEOR quality of life (FKSI-19, FKSI-DRS, EQ-5D-5L) and time to deterioration
Type: in vivo, human
Conditions: for EQ-Index, Evero Intercept (change at Week 4) / EQ-VAS, Evero Intercept (change at Week 4) / FKSI-19 Total, Evero Intercept (change at Week 4) / FKSI-DRS (9-item), Evero Intercept (change at Week 4): growth curve analysis
From the text: Patients completed the 19-item Functional Assessment of Cancer Therapy-Kidney Symptoms Index (FKSI-19) and the 5-level EuroQoL-5 Dimensions (EQ-5D-5L) questionnaires at baseline and throughout the study. The 9-item FKSI-Disease Related Symptoms (FKSI-DRS) is a subset of FKSI-19. Data were summarized descriptively and by mixed-effects repeated-measures analysis (clinically relevant difference was an effect size ≥0.3). Time to deterioration (TTD) was defined as earlier of death, radiographic progressive disease or ≥4-point decrease from baseline in FKSI-DRS.
QoL was measured by using two validated patient self-reported instruments: the Functional Assessment of Cancer Therapy-Kidney Symptom Index-19 item (FKSI-19) and EuroQol Group's EQ-5D-5L questionnaires. Patients were required to complete the QoL questionnaires before any assessments at each clinic visit prior to the first dose, every 4 weeks through Week 25, every 8 weeks thereafter for the first year, then every 12 weeks thereafter. The QoL assessments were conducted per protocol prior to the patient knowing the results of their next tumor assessment. These assessments were performed regardless of whether study treatment was given, reduced, interrupted, or discontinued until the date of the last tumor imaging assessment. Questionnaires were provided on paper in the patient's own language.
The FKSI-19 instrument is a 19-item self-reported questionnaire with a total score and four subscales that assesses disease-related symptoms (DRS), treatment side effects, and function/well-being associated with advanced kidney cancer. It queries symptom severity and interference in activity and general health perceptions (Rao D, Butt Z, Rosenbloom S, Robinson D Jr, Von Roenn J, Kuzel T M, Cella D. A Comparison of the Renal Cell Carcinoma-Symptom Index (RCC-SI) and the Functional Assessment of Cancer Therapy-Kidney Symptom Index (FKSI). J Pain Symptom Manage. 2009; 38(2):291-8; Rothrock N E, Jensen S E, Beaumont J L, Abernethy A P, Jacobsen P B, Syrjala K, Cella D. Development and initial validation of the NCCN/FACT symptom index for advanced kidney cancer. Value Health. 2013; 16(5):789-96). The FKSI-19 comprises four sub-scales (DRS-Physical, DRS-Emotional, Treatment Side Effects, and Function/Well Being; Table 2.1). Each of the items is scored on a 5-point scale from 0 (not at all) to 4 (very much). Higher FKSI-19 scores indicate improvement. The FKSI-19 ensures content validity congruent with FDA Guidance (FDA. Guidance for Industry. Patient-Reported Outcome Measures: Use in Medical Product Development to Support Labeling Claims. December 2009). and was developed from a previous 9-item DRS version (FKSI-DRS; lack of energy, pain, losing weight, fatigue, short of breath, fevers, bone pain, coughing, blood in urine). The FKSI-19 includes selected treatment side effects that are important to the patient and physician.
The standardized measure of health status EQ-5D-5L, developed by the EuroQol, was also used in this study in order to measure generic health status (Herdman M, Gudex C, Lloyd A, Janssen M, Kind P, Parkin D, t al. Development and preliminary testing of the new five-level version of EQ-5D (EQ-5D-5L). Qual Life Res. 2011; 20(10):1727-36). It comprises five functional and symptom dimensions: mobility, self-care, usual activities, pain/discomfort, and anxiety/depression. Levels indicate increasing severity from Level 1 (no problem) to Levels 2 through 5 (mild problem to extreme problem). The digits from the 5 dimensions were converted into a single population-based index value normalized across the nine countries in the study for which index value sets were available (van Hout B, Janssen M F, Feng Y S, Kohlmann T, Busschbach J, Golicki D, et al. Interim scoring for the EQ-5D-5L: mapping the EQ-5D-5L to EQ-5D-3L value sets. Value Health. 2012; 15(5):708-15). Index values range from 0 to 1 and a higher index score indicates better health. […]

[1] = FKSI-19 item, repeated measures, ITT
[2] = FKSI-19 subscale, repeated measures, ITT
[3] = Late Dropout (Week 41 or later)

## CO[C@H]1C[C@@H]2CC[C@@H](C)[C@@](O)(O2)C(=O)C(=O)N2CCCC[C@H]2C(=O)O[C@H]([C@H](C)C[C@@H]2CC[C@@H](OCCO)[C@H](OC)C2)CC(=O)[C@H](C)/C=C(\C)[C@@H](O)[C@@H](OC)C(=O)[C@H](C)C[C@H](C)/C=C/C=C/C=C/1C [everolimus]
[1]
  Able to work, LSMean change from baseline: −0.101
  Blood in my urine, LSMean change from baseline: −0.001
  Bone pain, LSMean change from baseline: 0.057
  Content with quality life, LSMean change from baseline: −0.017
  Coughing, LSMean change from baseline: −0.059
  Diarrhea, LSMean change from baseline: −0.326
  Enjoy life, LSMean change from baseline: −0.014
  Fatigued, LSMean change from baseline: −0.305
  Fevers, LSMean change from baseline: −0.021
  Good appetite, LSMean change from baseline: 0.181
  Lack of energy, LSMean change from baseline: −0.207
  Losing weight, LSMean change from baseline: −0.301
  Nausea, LSMean change from baseline: 0.069
  Pain, LSMean change from baseline: 0.067
  Short of breath, LSMean change from baseline: −0.271
  Side effects of treatment, LSMean change from baseline: −0.523
  Sleeping well, LSMean change from baseline: −0.152
  Weak all over, LSMean change from baseline: −0.265
  Worry condition worsen, LSMean change from baseline: 0.393
[2]
  DRS-Emotional, LSMean change from baseline: 0.393
  DRS-Physical, LSMean change from baseline: −1.386
  Function/Well-Being, LSMean change from baseline: −0.169
  Treatment Side Effects, LSMean change from baseline: −0.814
Bone metastases per IRC at baseline: No
  Median TTD: 3.8 mo
Bone metastases per IRC at baseline: Yes
  Median TTD: 1.9 mo
Early Dropout (before Week 24)
  EQ-Index, Evero Intercept (change at Week 4): −0.046
  EQ-VAS, Evero Intercept (change at Week 4): −2.474
  FKSI-19 Total, Evero Intercept (change at Week 4): −3.643
  FKSI-DRS (9-item), Evero Intercept (change at Week 4): −2.002
[3]
  EQ-Index, Evero Intercept (change at Week 4): 0.033
  EQ-VAS, Evero Intercept (change at Week 4): 1.012
  FKSI-19 Total, Evero Intercept (change at Week 4): 1.105
  FKSI-DRS (9-item), Evero Intercept (change at Week 4): 0.453
Median Dropout (Weeks 25-33)
  EQ-Index, Evero Intercept (change at Week 4): −0.018
  EQ-VAS, Evero Intercept (change at Week 4): −1.181
  FKSI-19 Total, Evero Intercept (change at Week 4): −1.838
  FKSI-DRS (9-item), Evero Intercept (change at Week 4): −0.843
Overall ITT, earlier of death, rPD, ≥4-point FKSI-DRS decrease from baseline
  Median time to deterioration (TTD): 3.7 mo
Repeated measures, ITT
  EQ-Index, LSMean change from baseline: −0.02
  EQ-VAS, LSMean change from baseline: −1.27
  FKSI-19 (19-item) Total Score, LSMean change from baseline: −2.214
  FKSI-DRS (9-item), LSMean change from baseline: −0.93
